Consider three molecules from ChEMBL document CHEMBL2401653, “Synthesis, structure-property relationships and pharmacokinetic evaluation of ethyl 6-aminonicotinate sulfonylureas as antagonists of the P2Y₁₂ receptor” (Eur J Med Chem, 2013).

Molecules are shown by their SMILES. In brackets after ≈: the same amount, converted by molar mass. Some results are limits rather than exact numbers.

Data set [1] is described as follows: Stability of the compound in MeCN assessed as compound remaining at 5 degC after 4 months. Type of data set: physicochemical. To be noted: read-out: Stability.
Data set [2] in a line: Stability of the compound in MeCN assessed as compound remaining at room temperature. Type of data set: physicochemical.
The subject of data set [3] is Liver microsomes. Nature of the data set: Metabolic stability in rat liver microsomes at 1 umol/L by LC/MS analysis in absence of NADPH. It is filed as ADME, Microsome. The note with it: 1 µM.
The subject of data set [4] is Liver microsomes. Nature of the data set: Metabolic stability in human liver microsomes at 1 umol/L by LC/MS analysis in absence of NADPH. The note with it: 1 µM. It is filed as ADME, Microsome. For orientation: Liver microsomes are a subcellular fraction often used to study metabolism.
Data set [5] in a line: Apparent Permeability across apical to basolateral side in human Caco2 cells at 1 to 10 uM measured at 30 to 90 mins by LC/MS analysis. Type of data set: ADME, cell-based. The note with it: Caco-2. In general terms: Caco-2 monolayers are a common model of the intestinal barrier.
A short description of data set [6]: 1-octanol-phosphate buffer distribution coefficient, log D of the compound at pH 7.4 after 2 days by shake flask method. It is filed as physicochemical.
The target in data set [7] is T1, P2Y purinoceptor 12 (Homo sapiens, UniProt Q9H244).
In data set [8] the target is T1, P2Y purinoceptor 12. This is another data set of the same source.
Description: Displacement of [125I]-AZ11931285 from P2Y12 receptor (unknown origin) after 1 hr by scintillation counting analysis
The nature of data set [9]: Half life in po dosed rat. It is filed as ADME, organism-based. To be noted: in vivo.
The nature of data set [10]: Half life in iv dosed rat. It is filed as ADME, organism-based. To be noted: in vivo.
Data set [11] can be described thus: Oral bioavailability in rat. To be noted: in vivo. It is filed as ADME, organism-based.
Data set [12] can be described thus: Clearance in iv dosed rat. It is filed as ADME, organism-based. To be noted: in vivo.
The test system of data set [13] is Liver microsomes. Nature of the data set: Intrinsic clearance in human liver microsomes at 1 umol/L by LC/MS analysis in presence of NADPH. Type of data set: ADME, Microsome. To be noted: 1 µM.
Data set [14] deals with Liver microsomes. Nature of the data set: Intrinsic clearance in rat liver microsomes at 1 umol/L by LC/MS analysis in presence of NADPH. It is filed as ADME, Microsome. The note with it: 1 µM.
A short description of data set [15]: Stability of the compound in EtOH at room temperature after 21 days by LC/MS analysis. Type of data set: physicochemical. To be noted: 504 h.
Data set [16] in a line: Stability of the compound in MeCN at room temperature after 21 days by LC/MS analysis. Type of data set: physicochemical. To be noted: 504 h.
A short description of the next data set: physchem. To be noted: HBSS buffer, pH 7.4.

T1 sequence (Q9H244 whole entry): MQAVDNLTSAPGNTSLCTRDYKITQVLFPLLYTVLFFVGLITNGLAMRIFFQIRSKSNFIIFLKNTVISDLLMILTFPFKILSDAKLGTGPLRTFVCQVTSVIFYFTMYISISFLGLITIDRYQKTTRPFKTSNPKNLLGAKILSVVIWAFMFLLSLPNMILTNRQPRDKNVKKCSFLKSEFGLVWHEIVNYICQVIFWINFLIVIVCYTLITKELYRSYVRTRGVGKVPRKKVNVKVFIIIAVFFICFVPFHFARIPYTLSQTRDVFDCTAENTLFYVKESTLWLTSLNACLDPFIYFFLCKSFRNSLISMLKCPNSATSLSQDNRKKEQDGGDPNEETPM
Description for physchem: Kinetic solubility in HBSS buffer at pH 7.4 after 16 hrs by LC-UV/MS analysis

Turning to `CCOC(=O)c1cc(C#N)c(N2CCN(C(=O)NS(=O)(=O)c3ccc(Cl)s3)CC2)nc1C(F)(F)F`, in data set [1], the remaining at 2922 h stood at 10%. Moreover, the Stability result (in [2]; in the data set with Liver microsomes [3]; with Liver microsomes [4]) was “Stable” each time. Further, the Papp A→B (as a rule, the apparent permeability from the apical to the basolateral side of a cell layer) at up to 10 µM in data set [5] amounted to 0.076 ×10⁻⁶ cm/s. The logD (in general, lipophilicity at a set pH, counting ionised and neutral species) at 48 h in data set [6] came out at 1.1. Further, the IC50 (as a rule, the concentration that gives 50% inhibition) on P2Y purinoceptor 12 [7] turned out to be 39 nM; against P2Y purinoceptor 12 [8], 79 nM.
Consider `CCOC(=O)c1cc(C#N)c(N2CCN(C(=O)NS(=O)(=O)c3ccc(C)cc3)CC2)nc1C(F)(F)F`, for which the remaining at 2922 h in [1] turned out to be 52%. The Stability entry in data set [2] is recorded as “Stable”. The half-life (usually how long it takes for the measured level to halve) in data set [9] was 0.65 h; in [10], 1.5 h. In addition, the bioavailability (in general, the share of a dose that reaches the circulation, judged against a reference dose that is usually intravenous) in data set [11] stood at 20%. Moreover, the clearance (commonly the volume of plasma or blood freed of the substance per unit of time) in data set [12] was determined as 89 mL/min/kg. In the data set with Liver microsomes [13], the Intrinsic clearance (CLint) is above 70 µL/min/mg. The Intrinsic clearance in the data set with Liver microsomes [14] was above 104 µL/min/mg. For the same molecule, the Papp A→B at up to 10 µM in data set [5] is 0.22 ×10⁻⁶ cm/s. Besides, the pH-dependent lipophilicity (logD) at 48 h in data set [6] was 1.3. Moreover, the IC50 at P2Y purinoceptor 12 [7] came out at 90 nM; on P2Y purinoceptor 12 [8], 120 nM.
Consider `CCOC(=O)c1cnc(N2CCN(C(=O)NS(=O)(=O)c3ccc(C)cc3)CC2)c(Cl)c1`, for which the Stability entry in data set [15] was “Unstable”; in [16], “Stable”; in data set [2], “Stable”. The Intrinsic clearance (CLint) with Liver microsomes [13] was above 70 µL/min/mg. In addition, in the data set on Liver microsomes [14], the Intrinsic clearance was above 104 µL/min/mg. The Papp A→B at up to 10 µM in data set [5] is 2.5 ×10⁻⁶ cm/s. The IC50 on P2Y purinoceptor 12 [7] and at P2Y purinoceptor 12 [8] was 300 nM in each case. The kinetic solubility (as a rule, solubility judged after dilution from a stock solution rather than from solid) at 16 h in “physchem” turned out to be 490 µM (≈ 229 µg/mL).
